Where a name gives a salt, the structure may show the parent alone.
Assays:
Assay in all cases: Cell viability drug screen, 12-point dose-response AUC
Format in all cases: cell-based, human
SNU1 = SNU1 cells, 72 hours
Summary of the method: (§1)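 Luminescent viability readings, taken 15 min after reagent addition at room temperature, were normalized to the 0.5% DMSO control to build 12-point dose-response curves. Trapezoidal integration gave the AUC. Cells had been plated at 5×10^3 per well and then exposed to half-log dilutions for 72 h.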

MKN28 = MKN28 cells, 72 hours
Summary of the method: as §1

YCC2 = YCC2 cells, 72 hours
Summary of the method: as §1

SK4 = details: 72 hours; for Average Area Under the Viability Curve (AUC), AUC norm value: SK4 cells (SEM subtype)
Summary of the method: as §1

SNU1967 = SNU1967 cells, 72 hours
Summary of the method: as §1

YCC11 = details: 72 hours; for Average Area Under the Viability Curve (AUC), AUC norm value: YCC11 cells (SEM subtype)
Summary of the method: as §1

Hs746T = details: 72 hours; for Average Area Under the Viability Curve (AUC), AUC norm value: Hs746T cells (SEM subtype)
Summary of the method: as §1

SNU1750 = details: 72 hours; for Average Area Under the Viability Curve (AUC), AUC norm value: SNU1750 cells (SEM subtype)
Summary of the method: as §1

SNU638 = SNU638 cells, 72 hours
Summary of the method: as §1

NCC24 = NCC24 cells, 72 hours
Summary of the method: as §1

MKN45 = details: 72 hours; for Average Area Under the Viability Curve (AUC), AUC norm value: MKN45 cells (non-SEM subtype)
Summary of the method: (§2)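 Each cell line receives a twelve-point half-log titration of drug beginning 24 h after plating 5×10^3 cells per well. Following 72 h culture at 37 °C, luminescent signal is recorded and expressed versus vehicle. AUC is derived by the trapezoidal method.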

MKN1 = MKN1 cells, 72 hours
Summary of the method: as §1

NCC59 = NCC59 cells, 72 hours
Summary of the method: as §1

SNU601 = SNU601 cells, 72 hours
Summary of the method: as §1

SNU668 = details: 72 hours; for Average Area Under the Viability Curve (AUC), AUC norm value: SNU668 cells (SEM subtype)
Summary of the method: as §1

OCUM1 = OCUM1 cells, 72 hours
Summary of the method: as §1

YCC3 = YCC3 cells, 72 hours
Summary of the method: as §1

NCI_N87 = NCI_N87 cells, 72 hours
Summary of the method: as §1

AGS = details: 72 hours; for Average Area Under the Viability Curve (AUC), AUC norm value: AGS cells (non-SEM subtype)
Summary of the method: as §2

SNU216 = details: 72 hours; for Average Area Under the Viability Curve (AUC), AUC norm value: SNU216 cells (non-SEM subtype)
Summary of the method: as §2

NCC20 = NCC20 cells, 72 hours
Summary of the method: as §1

NCC19 = NCC19 cells, 72 hours
Summary of the method: as §1

MKN74 = MKN74 cells, 72 hours
Summary of the method: as §2

SNU484 = details: 72 hours; for Average Area Under the Viability Curve (AUC), AUC norm value: SNU484 cells (SEM subtype)
Summary of the method: as §1

SNU16 = SNU16 cells, 72 hours
Summary of the method: as §1

SNU719 = SNU719 cells, 72 hours
Summary of the method: as §2

SNU620 = SNU620 cells, 72 hours
Summary of the method: as §1

KATO3 = KATO3 cells, 72 hours
Summary of the method: as §1

FU97 = test system: FU97; design: Average Area Under the Viability Curve (AUC), AUC norm value: scale not given here; details: FU97 cells, 72 hours
Summary of the method: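 Trapezoidal AUC of a 12-point, DMSO-normalized dose-response curve. Luminescent viability was measured after 72 h of exposure at 37° C to half-log serial dilutions (0.5% DMSO control), dosed 24 h after plating FU97 cells at 5×10^3 per well.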

## CC(/C=C/C(=O)NO)=C\[C@@H](C)C(=O)c1ccc(N(C)C)cc1 [Trichostatin A (TSA), Trichostatin A]
SNU1; 12-point dose-response
  area under the viability curve (AUC), normalized: −0.9946
MKN28; 12-point dose-response
  area under the viability curve (AUC), normalized: −0.6515
YCC2; 12-point dose-response
  area under the viability curve (AUC), normalized: 0.2017
SK4; SK4 cells, 12-point dose-response
  area under the viability curve (AUC), normalized: 0.7897
SNU1967; 12-point dose-response
  area under the viability curve (AUC), normalized: −1.472
YCC11; YCC11 cells, 12-point dose-response
  area under the viability curve (AUC), normalized: −0.2695
Hs746T; Hs746T cells, 12-point dose-response
  area under the viability curve (AUC), normalized: 0.6621
SNU1750; SNU1750 cells, 12-point dose-response
  area under the viability curve (AUC), normalized: −1.0771
SNU638; 12-point dose-response
  area under the viability curve (AUC), normalized: −0.2758
NCC24; 12-point dose-response
  area under the viability curve (AUC), normalized: −1.307
MKN45; MKN45 cells, 12-point dose-response
  area under the viability curve (AUC), normalized: 2.215
MKN1; 12-point dose-response
  area under the viability curve (AUC), normalized: 0.4223
NCC59; 12-point dose-response
  area under the viability curve (AUC), normalized: 1.784
SNU601; 12-point dose-response
  area under the viability curve (AUC), normalized: 1.155
SNU668; SNU668 cells, 12-point dose-response
  area under the viability curve (AUC), normalized: 0.1344
OCUM1; 12-point dose-response
  area under the viability curve (AUC), normalized: 0.1474
YCC3; 12-point dose-response
  area under the viability curve (AUC), normalized: 1.17
NCI_N87; 12-point dose-response
  area under the viability curve (AUC), normalized: −0.01232
AGS; AGS cells, 12-point dose-response
  area under the viability curve (AUC), normalized: −1.137
SNU216; SNU216 cells, 12-point dose-response
  area under the viability curve (AUC), normalized: 0
NCC20; 12-point dose-response
  area under the viability curve (AUC), normalized: −1.842
NCC19; 12-point dose-response
  area under the viability curve (AUC), normalized: −0.3026
MKN74; 12-point dose-response
  area under the viability curve (AUC), normalized: 0.3005
SNU484; SNU484 cells, 12-point dose-response
  area under the viability curve (AUC), normalized: 0.4515
SNU16; 12-point dose-response
  area under the viability curve (AUC), normalized: 1.141
SNU719; 12-point dose-response
  area under the viability curve (AUC), normalized: 1.883
SNU620; 12-point dose-response
  area under the viability curve (AUC), normalized: −1.343
KATO3; 12-point dose-response
  area under the viability curve (AUC), normalized: −0.1555
FU97; 12-point dose-response
  area under the viability curve (AUC), normalized: −1.181

## Cn1cc(CNCC2CCN(c3ncc(C(=O)NO)cn3)CC2)c2ccccc21 [JNJ-26481585]
SNU1
  Average Area Under the Viability Curve (AUC), AUC norm value: −0.984
MKN28
  Average Area Under the Viability Curve (AUC), AUC norm value: −0.5312
YCC2
  Average Area Under the Viability Curve (AUC), AUC norm value: −0.1018
SK4
  Average Area Under the Viability Curve (AUC), AUC norm value: −0.3258
SNU1967
  Average Area Under the Viability Curve (AUC), AUC norm value: −1.0365
YCC11
  Average Area Under the Viability Curve (AUC), AUC norm value: 0.08841
Hs746T
  Average Area Under the Viability Curve (AUC), AUC norm value: 0.2906
SNU1750
  Average Area Under the Viability Curve (AUC), AUC norm value: −0.8596
SNU638
  Average Area Under the Viability Curve (AUC), AUC norm value: 0.1995
NCC24
  Average Area Under the Viability Curve (AUC), AUC norm value: −1.592
MKN45
  Average Area Under the Viability Curve (AUC), AUC norm value: 2.743
MKN1
  Average Area Under the Viability Curve (AUC), AUC norm value: 0.558
NCC59
  Average Area Under the Viability Curve (AUC), AUC norm value: 3.687
SNU601
  Average Area Under the Viability Curve (AUC), AUC norm value: 1.501
SNU668
  Average Area Under the Viability Curve (AUC), AUC norm value: 1.486
OCUM1
  Average Area Under the Viability Curve (AUC), AUC norm value: 0.02955
YCC3
  Average Area Under the Viability Curve (AUC), AUC norm value: 0.3561
NCI_N87
  Average Area Under the Viability Curve (AUC), AUC norm value: −0.2649
AGS
  Average Area Under the Viability Curve (AUC), AUC norm value: −1.073
SNU216
  Average Area Under the Viability Curve (AUC), AUC norm value: 0.3424
NCC20
  Average Area Under the Viability Curve (AUC), AUC norm value: −1.396
NCC19
  Average Area Under the Viability Curve (AUC), AUC norm value: 0.3912
MKN74
  Average Area Under the Viability Curve (AUC), AUC norm value: −0.06428
SNU484
  Average Area Under the Viability Curve (AUC), AUC norm value: 0
SNU16
  Average Area Under the Viability Curve (AUC), AUC norm value: −0.7883
SNU719
  Average Area Under the Viability Curve (AUC), AUC norm value: 3.527
SNU620
  Average Area Under the Viability Curve (AUC), AUC norm value: −1.2467
KATO3
  Average Area Under the Viability Curve (AUC), AUC norm value: 0.3482
FU97
  Average Area Under the Viability Curve (AUC), AUC norm value: −0.6324

## COc1cccc2c1C(=O)c1c(O)c3c(c(O)c1C2=O)C[C@@](O)(C(C)=O)C[C@@H]3O[C@H]1C[C@H](N)[C@H](O)[C@H](C)O1 [Daunorubicin HCl (Daunomycin HCl), Daunorubicin HCl]
SNU1
  Average Area Under the Viability Curve (AUC), AUC norm value: −0.7605
MKN28
  Average Area Under the Viability Curve (AUC), AUC norm value: 2.146
YCC2
  Average Area Under the Viability Curve (AUC), AUC norm value: 1.127
SK4
  Average Area Under the Viability Curve (AUC), AUC norm value: 0
SNU1967
  Average Area Under the Viability Curve (AUC), AUC norm value: −1.481
YCC11
  Average Area Under the Viability Curve (AUC), AUC norm value: −1.742
Hs746T
  Average Area Under the Viability Curve (AUC), AUC norm value: 0.1484
SNU1750
  Average Area Under the Viability Curve (AUC), AUC norm value: −0.7795
SNU638
  Average Area Under the Viability Curve (AUC), AUC norm value: −1.229
NCC24
  Average Area Under the Viability Curve (AUC), AUC norm value: −0.8801
MKN45
  Average Area Under the Viability Curve (AUC), AUC norm value: 2.949
MKN1
  Average Area Under the Viability Curve (AUC), AUC norm value: −0.2877
NCC59
  Average Area Under the Viability Curve (AUC), AUC norm value: −0.5161
SNU601
  Average Area Under the Viability Curve (AUC), AUC norm value: 1.207
SNU668
  Average Area Under the Viability Curve (AUC), AUC norm value: −0.9142
OCUM1
  Average Area Under the Viability Curve (AUC), AUC norm value: 0.7066
YCC3
  Average Area Under the Viability Curve (AUC), AUC norm value: 2.699
NCI_N87
  Average Area Under the Viability Curve (AUC), AUC norm value: 4.5372
AGS
  Average Area Under the Viability Curve (AUC), AUC norm value: −1.2278
SNU216
  Average Area Under the Viability Curve (AUC), AUC norm value: 0.4507
NCC20
  Average Area Under the Viability Curve (AUC), AUC norm value: −0.7736
NCC19
  Average Area Under the Viability Curve (AUC), AUC norm value: 0.9357
MKN74
  Average Area Under the Viability Curve (AUC), AUC norm value: 1.215
SNU484
  Average Area Under the Viability Curve (AUC), AUC norm value: −1.299
SNU16
  Average Area Under the Viability Curve (AUC), AUC norm value: −1.065
SNU719
  Average Area Under the Viability Curve (AUC), AUC norm value: 3.416
SNU620
  Average Area Under the Viability Curve (AUC), AUC norm value: −1.239
KATO3
  Average Area Under the Viability Curve (AUC), AUC norm value: 6.288
FU97
  Average Area Under the Viability Curve (AUC), AUC norm value: 0.3965

Source: US20250129430A1, “HIGH ATP-AFFINITY PROTEIN AS THERAPEUTIC TARGET FOR INTRACTABLE CANCER MOLECULAR SUBTYPES AND INHIBITOR THEREOF” (VeraVerse Co., Ltd., priority 2021, published 2025)
